Measurements taken from patent publication US7731985B2, “4-aminopyrimidines and their use for the antimicrobial treatment of surfaces” (Ciba Specialty Chemicals Corporation, priority 2002, dated 2010).

How the values were obtained:
Test in all cases: MIC in microtitre plates (Example 10)
Format in all cases: cell-based
Parameters in all cases: unit not given here
Conditions in all cases: microtitre plate, 48 hours at 37° C., ≦20% growth
[1] = test system: Staphylococcus aureus ATCC 9144 (=SA)
Description: (§1) Determination of the Minimum Inhibitory Concentration (MIC Value) in Microtitre Plates Casein/soymeal peptone broth for preparation of pre-cultures of test bacteria and yeast Bacteria: • Pseudomonas aeruginosa CIP A-22 (=PA) • Escherichia coli NCTC 8196 (=EC) • Staphylococcus aureus ATCC 9144 (=SA) • Candida albicans ATCC 10231 (=CA) The test substances are pre-dissolved in dimethyl sulfoxide (DMSO) and tested in a dilution series of 1:2. Bacteria and yeast are cultured overnight in CASO broth. All the test organism suspensions are adjusted to an organism count of 1-5×10^6 CFU/ml using […] sodium chloride solution. The test substances are pre-pipetted into microtitre plates in amounts of 8 μl per well. The pre-adjusted organism suspensions are diluted 1:100 in CASO broth and are added in amounts of 192 μl per well to the test substances. The test batches are incubated for 48 hours at 37° C. The incubation, the growth is determined on the basis of the turbidity of the test batches (optical density) at 620 nm in a microplate reader. The minimum inhibitory concentration (MIC value) is the concentration of substance at which (compared to the growth of the control) an appreciable inhibition of growth (≦20% growth) of the test organisms is observed. Three microtitre plates are used for each test organism and substance concentration. All the substances are tested in duplicate.

[2] = test system: Candida albicans ATCC 10231 (=CA)
Description: as §1

[3] = test system: Pseudomonas aeruginosa CIP A-22 (=PA)
Description: as §1

[4] = test system: Escherichia coli NCTC 8196 (=EC)
Description: as §1

Row | MIC SA [1] | MIC CA [2] | MIC PA [3] | MIC EC [4] | SMILES
1 | 7.5 | 7.5 | >120 | 15 | NCCN1CCN(c2nc(-c3ccccc3)nc(-c3cccc4ccccc34)c2-c2ccccc2)CC1 [compound 3]
2 | 7.5 | 15 | >120 | 30 | NCCCCCCCCNc1nc(-c2ccccc2)nc(-c2cccc3ccccc23)c1-c1ccccc1 [compound 4]
3 | 7.5 | >120 | >120 | >120 | NCCCCCCCCCCNc1nc(-c2ccccc2)nc(-c2cccc3ccccc23)c1-c1ccccc1 [compound 5]
4 | 7.5 | >120 | >120 | 60 | NCCCOCCCCOCCCNc1nc(-c2ccccc2)nc(-c2cccc3ccccc23)c1-c1ccccc1 [compound 6]
5 | 15 | 30 | >120 | 15 | Fc1ccc(-c2nc(-c3ccccc3)nc(N3CCCNCC3)c2-c2ccccc2)cc1 [compound 7]
6 | 30 | 120 | >120 | 30 | NCCCCCCCCCCCCNc1nc(-c2ccccc2)nc(-c2ccc(F)cc2)c1-c1ccccc1 [compound 8]
7 | 15 | 30 | >120 | 15 | NCCCOCCCCOCCCNc1nc(-c2ccccc2)nc(-c2ccc(F)cc2)c1-c1ccccc1 [compound 9]
8 | 15 | 30 | >120 | 30 | CNCCN(C)c1nc(-c2ccccc2)nc(-c2ccc(C)cc2)c1-c1ccccc1 [compound 10]
9 | 7.5 | 7.5 | >120 | 15 | Cc1ccc(-c2nc(-c3ccccc3)nc(NCCCCCCN)c2-c2ccccc2)cc1 [compound 11]
10 | 7.5 | 7.5 | 7.5 | 3.75 | Cc1ccc(-c2nc(-c3ccccc3)nc(NCCCN(C)CCCN)c2-c2ccccc2)cc1 [compound 12]
11 | 15 | 30 | >120 | 15 | Cc1ccc(-c2nc(-c3ccccc3)nc(NCCOCCOCCN)c2-c2ccccc2)cc1 [compound 13]
12 | 15 | 15 | 30 | 3.75 | Cc1ccc(-c2nc(-c3ccccc3)nc(NCCCN3CCN(CCCN)CC3)c2-c2ccccc2)cc1 [compound 14]
13 | 15 | >120 | >120 | >120 | Cc1ccc(-c2nc(-c3ccccc3)nc(N3CCC(CCCC4CCNCC4)CC3)c2-c2ccccc2)cc1 [compound 15]
14 | 7.5 | 15 | >120 | 15 | FC(F)(F)c1cccc(-c2nc(-c3ccccc3)nc(N3CCNCC3)c2-c2ccccc2)c1 [compound 16]
15 | 15 | 15 | >120 | 30 | CNCCN(C)c1nc(-c2ccccc2)nc(-c2cccc(C(F)(F)F)c2)c1-c1ccccc1 [compound 17]
16 | 30 | 60 | 120 | 30 | NCCNCCNc1nc(-c2ccccc2)nc(-c2cccc(C(F)(F)F)c2)c1-c1ccccc1 [compound 18]
17 | 7.5 | 8 | >120 | 15 | NCCN1CCN(c2nc(-c3ccccc3)nc(-c3cccc(C(F)(F)F)c3)c2-c2ccccc2)CC1 [compound 19]
18 | 15 | 15 | >120 | 30 | NCCCCCCCCNc1nc(-c2ccccc2)nc(-c2cccc(C(F)(F)F)c2)c1-c1ccccc1 [compound 20]

Row | MIC SA [1] | MIC CA [2] | MIC PA [3] | MIC EC [4] | SMILES
19 | 7.5 | <3.75 | 7.5 | <3.75 | CN(CCCN)CCCNc1nc(-c2ccccc2)nc(-c2cccc(C(F)(F)F)c2)c1-c1ccccc1 [compound 21]
20 | 15 | 7.5 | >120 | 15 | NCCOCCOCCNc1nc(-c2ccccc2)nc(-c2cccc(C(F)(F)F)c2)c1-c1ccccc1 [compound 22]
21 | 15 | 7.5 | 30 | 7.5 | NCCCN1CCN(CCCNc2nc(-c3ccccc3)nc(-c3cccc(C(F)(F)F)c3)c2-c2ccccc2)CC1 [compound 23]
22 | 30 | 30 | 30 | 15 | COc1cccc(-c2nc(-c3ccccc3)nc(NCCCN(C)CCCN)c2-c2ccccc2)c1 [compound 24]
23 | >120 | 120 | >120 | 60 | COc1cccc(-c2nc(-c3ccccc3)nc(NCCCN3CCN(CCCN)CC3)c2-c2ccccc2)c1 [compound 25]
24 | 60 | >120 | >120 | 60 | CNCCN(C)c1nc(-c2ccccc2)nc(-c2ccccc2OC)c1-c1ccccc1 [compound 26]
25 | 30 | 60 | >120 | 30 | COc1ccccc1-c1nc(-c2ccccc2)nc(N2CCN(CCN)CC2)c1-c1ccccc1 [compound 27]
26 | <3.75 | >120 | >120 | >120 | COc1ccccc1-c1nc(-c2ccccc2)nc(N2CCC(CCCC3CCNCC3)CC2)c1-c1ccccc1 [compound 28]
27 | 15 | 30 | >120 | 30 | NCCCCCCCCCCCCNc1cc(-c2cccc3ccccc23)ncn1 [compound 29]
28 | 60 | 15 | >120 | 30 | FC(F)(F)c1cccc(-c2cc(N3CCC(CCCC4CCNCC4)CC3)ncn2)c1 [compound 30]
29 | 60 | 120 | >120 | >120 | CCCNc1cc(C)nc(-c2cccnc2)n1 [compound 31]
30 | 60 | 60 | >120 | 120 | CCCCNc1cc(C)nc(-c2cccnc2)n1 [compound 32]
31 | 30 | 60 | >120 | >120 | CCCCCCNc1cc(C)nc(-c2cccnc2)n1 [compound 33]
32 | 7.5 | 30 | >120 | 120 | CCCCCCCCNc1cc(C)nc(-c2cccnc2)n1 [compound 34]
33 | 15 | 30 | 120 | 30 | CCCCCCCCCCCNc1cc(C)nc(-c2cccnc2)n1 [compound 35]
34 | 7.5 | 7.5 | 60 | 15 | CCCCCCCCCCCCNc1cc(C)nc(-c2cccnc2)n1 [compound 36]
35 | 7.5 | 7.5 | >120 | 15 | CCCCCCCCCCCCCNc1cc(C)nc(-c2cccnc2)n1 [compound 37]
